Measurements reported in the CheMixHub ionic liquid set.

Test: xn = mol fraction of the nth substance listed

CCCCCCCCn1cc[n+](C)c1.[Cl-] + O
Settings | electrical conductivity [S/m] | viscosity [mPa·s]
278.15 K, 100 kPa, x1 = 0.0001 | – | 1.534
278.15 K, 100 kPa, x1 = 0.0001668 | – | 1.543
278.15 K, 100 kPa, x1 = 0.0002526 | – | 1.559
278.15 K, 100 kPa, x1 = 0.0003767 | – | 1.575
278.15 K, 100 kPa, x1 = 0.0005495 | – | 1.603
278.15 K, 100 kPa, x1 = 0.000764 | – | 1.642
278.15 K, 100 kPa, x1 = 0.0009813 | – | 1.683
283.15 K, 100 kPa, x1 = 0.0001 | – | 1.316
283.15 K, 100 kPa, x1 = 0.0001668 | – | 1.322
283.15 K, 100 kPa, x1 = 0.0002526 | – | 1.33
283.15 K, 100 kPa, x1 = 0.0003767 | – | 1.346
283.15 K, 100 kPa, x1 = 0.0005495 | – | 1.368
283.15 K, 100 kPa, x1 = 0.000764 | – | 1.404
283.15 K, 100 kPa, x1 = 0.0009813 | – | 1.439
288.15 K, 100 kPa, x1 = 0.0001 | – | 1.151
288.15 K, 100 kPa, x1 = 0.0001668 | – | 1.165
288.15 K, 100 kPa, x1 = 0.0002526 | – | 1.182
288.15 K, 100 kPa, x1 = 0.0003767 | – | 1.206
288.15 K, 100 kPa, x1 = 0.0005495 | – | 1.233
288.15 K, 100 kPa, x1 = 0.000764 | – | 1.27
288.15 K, 100 kPa, x1 = 0.0009813 | – | 1.304
293.15 K, 100 kPa, x1 = 0.0001 | – | 1.01
293.15 K, 100 kPa, x1 = 0.0001668 | – | 1.014
293.15 K, 100 kPa, x1 = 0.0002526 | – | 1.021
293.15 K, 100 kPa, x1 = 0.0003767 | – | 1.031
293.15 K, 100 kPa, x1 = 0.0005495 | – | 1.046
293.15 K, 100 kPa, x1 = 0.000764 | – | 1.068
293.15 K, 100 kPa, x1 = 0.0009813 | – | 1.09
298.15 K, 100 kPa, x1 = 0.0001 | – | 0.898
298.15 K, 100 kPa, x1 = 0.0001668 | – | 0.901
298.15 K, 100 kPa, x1 = 0.0002526 | – | 0.906
298.15 K, 100 kPa, x1 = 0.0003767 | – | 0.916
298.15 K, 100 kPa, x1 = 0.0005495 | – | 0.929
298.15 K, 100 kPa, x1 = 0.000764 | – | 0.947
298.15 K, 100 kPa, x1 = 0.0009813 | – | 0.965
298.15 K, 101.3 kPa, x1 = 4.96e-06 | 0.00314 | –
298.15 K, 101.3 kPa, x1 = 7.53e-06 | 0.00467 | –
298.15 K, 101.3 kPa, x1 = 1.002e-05 | 0.00613 | –
298.15 K, 101.3 kPa, x1 = 1.247e-05 | 0.00756 | –
298.15 K, 101.3 kPa, x1 = 1.481e-05 | 0.00893 | –
298.15 K, 101.3 kPa, x1 = 1.716e-05 | 0.01029 | –
298.15 K, 101.3 kPa, x1 = 1.95e-05 | 0.0116 | –
298.15 K, 101.3 kPa, x1 = 2.177e-05 | 0.0129 | –
298.15 K, 101.3 kPa, x1 = 2.424e-05 | 0.01436 | –
298.15 K, 101.3 kPa, x1 = 2.667e-05 | 0.0158 | –
298.15 K, 101.3 kPa, x1 = 2.939e-05 | 0.0173 | –
303.15 K, 100 kPa, x1 = 0.0001 | – | 0.804
303.15 K, 100 kPa, x1 = 0.0001668 | – | 0.807
303.15 K, 100 kPa, x1 = 0.0002526 | – | 0.812
303.15 K, 100 kPa, x1 = 0.0003767 | – | 0.819
303.15 K, 100 kPa, x1 = 0.0005495 | – | 0.83
303.15 K, 100 kPa, x1 = 0.000764 | – | 0.845
303.15 K, 100 kPa, x1 = 0.0009813 | – | 0.861
308.15 K, 100 kPa, x1 = 0.0001 | – | 0.725
308.15 K, 100 kPa, x1 = 0.0001668 | – | 0.727
308.15 K, 100 kPa, x1 = 0.0002526 | – | 0.732
308.15 K, 100 kPa, x1 = 0.0003767 | – | 0.737
308.15 K, 100 kPa, x1 = 0.0005495 | – | 0.747
308.15 K, 100 kPa, x1 = 0.000764 | – | 0.761
308.15 K, 100 kPa, x1 = 0.0009813 | – | 0.775
313.15 K, 100 kPa, x1 = 0.0001 | – | 0.658
313.15 K, 100 kPa, x1 = 0.0002526 | – | 0.665
313.15 K, 100 kPa, x1 = 0.0003767 | – | 0.669
313.15 K, 100 kPa, x1 = 0.0005495 | – | 0.677
313.15 K, 100 kPa, x1 = 0.000764 | – | 0.689
313.15 K, 100 kPa, x1 = 0.0009813 | – | 0.701

298.15 K, 100 kPa, frequency 0.001 MHz
Settings | electrical conductivity [S/m]
x1 = 0.001709 | 0.532
x1 = 0.002014 | 0.588
x1 = 0.002301 | 0.647
x1 = 0.00266 | 0.716
x1 = 0.002911 | 0.765
x1 = 0.003215 | 0.824
x1 = 0.003519 | 0.889
x1 = 0.003824 | 0.941
x1 = 0.004074 | 0.978
x1 = 0.004467 | 1.02
x1 = 0.004967 | 1.08
x1 = 0.005947 | 1.16
